The results in this text go back to patent publication US7342137B1, “Cyclohexenone compounds from Antrodia camphorata and application thereof” (Golden Biotechnology Corporation, priority 2007, dated 2008).

Type in all cases: cell-based
The test system of test [1] is human hepatic-cancer cells, Hep G2. Put plainly: In vitro survival assay (MTT), hepatic cancer cells Hep G2. The note with it: HepG2, 48 hours incubation. The method, then: The NCI anti-cancer drug screen model was also adopted to test the anti-cancer effect of the compound isolated from example 1 in the present invention. The isolated compound of 4-hydroxy-2,3-dimethoxy-6-methyl-5(3,7,11-trimethyl-dodeca-2,6,10-trienyl)-cyclohex-2-enone from example 1 was added into the culture media of human hepatic-cancer cells, Hep 3B or Hep G2, for tumor cell survival assay.
(§1) The human hepatic-cancer cells, Hep 3B and Hep G2, were separately cultivated in media containing fetal calf serum for 24 hours. The proliferated cells were washed once with PBS, then treated with 1× trypsin-EDTA and centrifuged at 1200 rpm for 5 minutes. The supernatant was discarded and the cell pellet was resuspended in 10 ml of fresh culture medium by gently shaking. The cells were placed in a 96-well plate. Ethanol extracts of Antrodia camphorata (the control group, total extracts of Antrodia camphorata without purification) were added into each of the 96 wells at the following concentrations: 30, 10, 3, 1, 0.3, 0.1 and 0.03 μg/ml, respectively, while 4-hydroxy-2,3-dimethoxy-6-methyl-5(3,7,11-trimethyl-dodeca-2,6,10-trienyl)-cyclohex-2-enone (the experiment group) were added into each of the 96 wells at the following concentrations: 30, 10, 3, 1, 0.3, 0.1 and 0.03 μg/ml, respectively. […] The plates were read on an ELISA reader at wavelength of 570 nm to determine the survival rates.

Test [2] has as its system human prostate cancer cells, DU-145. Put plainly: In vitro survival assay (MTT), prostate cancer cells DU-145. The note with it: 48 hours incubation. The procedure:
The NCI anti-cancer drug screen model was also adopted to test the anti-cancer effect of the compound isolated from example 1 in the present invention. The isolated compound of 4-hydroxy-2,3-dimethoxy-6-methyl-5(3,7,11-trimethyl-dodeca-2,6,10-trienyl)-cyclohex-2-enone from example 1 was added into the culture media of human prostate cancer cells, LNCaP or DU-145, for tumor cell survival assay.
as §1, with “LNCaP” for “Hep 3B”, “DU-145,” for “Hep G2,”, “or” for “were added into each of the 96 wells at the following concentrations: 30, 10, 3, 1, 0.3, 0.1 and 0.03 μg/ml, respectively, while”, “respectively. The cells were incubated at 37° C. in a 5% CO2 incubator for 48 hours.” for “respectively.”

For test [3], the system named is human breast-cancer cells, MDA-MB-231. The test can be described thus: In vitro Taxol add-on study (MTT), MDA-MB-231. The note with it: Homo sapiens, 0.0017 μg/ml Taxol + formula 2. The method, then: (§2) The experiment was also carried out according to NCI anti-cancer drug screen in vitro model. The human breast-cancer cells, MCF-7 and MDA-MB-231 were separately cultivated in media containing fetal calf serum for 24 hours. The proliferated cells were washed once with PBS, then treated with 1× trypsin-EDTA and centrifuged at 1200 rpm for 5 minutes. The supernatant was discarded and the cell pellet was resuspended in 10 ml of fresh culture medium by gently shaking. The cells were placed in a 96-well plate after 0.0017 μg/ml Taxol was added and treated for 72 hours. 4-hydroxy-2,3-dimethoxy-6-methyl-5(3,7,11-trimethyl-dodeca-2,6,10-trienyl)-cyclohex-2-enone obtained from example 1 were added respectively into each of the 96 wells at the following concentrations: 0 μg/ml (the control group); 30, 10, 3, 1, 0.3, 0.1 and 0.03 μg/ml (the experiment group). The cells were incubated at 37° C. in a 5% CO2 incubator for 48 hours. MTT was added in a concentration of 2.5 mg/ml into each well in dark and reacted for 4 hours, followed by the addition of 100 μl of lysis buffer to terminate the reaction. The plates were read on an ELISA reader at wavelength of 570 nm to determine the survival rates.

The subject of test [4] is human prostate cancer cells, DU-145. The test can be described thus: In vitro Taxol add-on study (MTT), prostate cancer cells DU-145. The note with it: Homo sapiens; DU-145 (0.0043 μg/ml Taxol + formula 2) as printed in Table 6. The method, then: The experiment was also carried out according to NCI anti-cancer drug screen in vitro model. The human prostate cancer cells, LNCaP and DU-145 were separately cultivated in media containing fetal calf serum for 24 hours. The proliferated cells were washed once with PBS, then treated with 1× trypsin-EDTA and centrifuged at 1200 rpm for 5 minutes. The supernatant was discarded and the cell pellet was resuspended in 10 ml of fresh culture medium by gently shaking. The LNCaP cells were treated with 0.0017 μg/ml of Taxol for 72 hours and DU-145 cells were treated with 0.0043 μg/ml of Taxol for 72 hours before placing in a 96-well plate. 4-hydroxy-2,3-dimethoxy-6-methyl-5(3,7,11-trimethyl-dodeca-2,6,10-trienyl)-cyclohex-2-enone obtained from example 1 were added respectively into each of the 96 wells at the following concentrations: 0 μg/ml (the control group); 30, 10, 3, 1, 0.3, 0.1 and 0.03 μg/ml (the experiment group). The cells were incubated at 37° C. in a 5% CO2 incubator for 48 hours. MTT was added in a concentration of 2.5 mg/ml into each well in dark and reacted for 4 hours, followed by the addition of 100 μl of lysis buffer to stop the reaction. The plates were read on an ELISA reader at wavelength of 570 nm to determine the survival rates.

In test [5] the test system is human breast-cancer cells, MCF-7. The test can be described thus: In vitro Taxol add-on study (MTT), MCF-7. To be noted: Homo sapiens, MCF7, 0.0017 μg/ml Taxol + formula 2. The procedure:
as §2

Each structure is given as a SMILES string.

Take `COC1=C(OC)C(O)C(C/C=C(\C)CC/C=C(\C)CCC=C(C)C)C(C)C1=O` (centres unmarked) [formula 2, 4-hydroxy-2,3-dimethoxy-6-methyl-5(3,7,11-trimethyl-dodeca-2,6,10-trienyl)-cyclohex-2-enone]: the IC50 in test [1] was 1.68 µg/mL; in test [2], 1.81 µg/mL; in test [3] it was 0.011 µg/mL; in test [4] it was 0.515 µg/mL; in test [5] it was 0.009 µg/mL.

In general, IC50 refers to the concentration that inhibits the measured activity by half.
